Test results: US20240150340A1, “CDK Inhibitors And Their Use As Pharmaceuticals” (Prelude Therapeutics Incorporated, priority 2022, published 2024)

Columns and labels:
[1] = target: T1, CDK2/Cyclin E2 (Homo sapiens, UniProt P24941); assay: CDK2/CyclinE2 Enzymatic Activity Assay (TR-FRET); type: biochemical; conditions: ATP 1 mM final, read-out: CDK2_E1 IC50
T1 construct: Recombinant protein complex CDK2/Cyclin E2, expressed from insect cell, was purchased from ProQinase
Outline: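 Recombinant insect-cell CDK2/Cyclin E2 (1 nM) phosphorylated ULight-4E-BP1 (50 nM) with 1 mM ATP in HEPES pH 7.4 buffer, after 20 min compound preincubation; MgCl2 (10 mM) started the 45 min reaction at 37° C. Europium anti-phospho-4E-BP1 TR-FRET read; 9-dose IC50 by 4-parameter fit.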

[2] = tested on: OVCAR3 p-RB; assay: pRB ICW Assay in OVCAR3 Cells; type: cell-based; conditions: Homo sapiens, OVCAR-3, incubated with compound for 2 hours
Outline: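 In-Cell Western on OVCAR3: phospho-RB antibody signal with DRAQ5 counterstain read at 700 and 800 nm after fixation. Compounds were applied for 2 h at 37° C. as 9-point ½-log dilutions in duplicate; 10 μM reference compound defined full inhibition.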

[3] = target: T2, CDK4/Cyclin D1 (Homo sapiens, UniProt P11802); assay: CDK4/CyclinD1 Enzymatic Activity Assay (TR-FRET); type: biochemical; conditions: ATP 2 mM final, read-out: CDK4_D1 IC50
T2 construct: purchased ProQinase; host or cells: insect cell
Description: CDK4/CyclinD1 Enzymatic Activity Assay
The inhibitory activity of compounds was evaluated in vitro using TR-FRET assay with white 384-well low volume microplate (Greiner Bio-One). CDK4/Cyclin D1 catalyzed phosphorylation of peptide in the presence and absence of compounds was measured and used in IC50 determination. Recombinant protein complex CDK4/Cyclin D1, expressed from insect cell, was purchased from ProQinase. Testing compounds were dissolved in DMSO at 1 mM and tested in 9-dose IC50 mode. The reaction mixture was prepared by mixing CDK4/CyclinD1 (1 nM final), ULight-4E-BP1 (100 nM final, Perkinelmer, TRF0128-D), and ATP (2 mM final) in assay buffer (20 mM of HEPES pH 7.4, 1 mM of EGTA, 0.05% BSA, 0.005% Tween 20, and 1 mM TCEP). The compound of interest in DMSO was added to each well in 3-fold serial dilution by the dispenser (TECAN D300E) to make a 9.9 μL of reaction mixture. After 20 minutes preincubation at room temperature, 0.1 μL MgCl2 (10 mM final) was added to initiate the reaction. Following a 45-minute incubation at 37° C., the reaction was stopped by addition of 2 μL of quenching buffer consisting of Lance detection buffer (Perkinelmer CR97-100C), LANCE Ultra Europium-anti-P-4E-BP1 (Perkinelmer, TRF0216-D), EDTA, and incubated at room temperature for additional 60 minutes in dark. The reaction signal was measured by Envision multimode plate reader (PerkinElmer, 2102-0010). IC50 values were determined by fitting the data to the standard 4 parameters with Hill Slope using GraphPad Prism software.

T2 sequence (P11802 whole entry): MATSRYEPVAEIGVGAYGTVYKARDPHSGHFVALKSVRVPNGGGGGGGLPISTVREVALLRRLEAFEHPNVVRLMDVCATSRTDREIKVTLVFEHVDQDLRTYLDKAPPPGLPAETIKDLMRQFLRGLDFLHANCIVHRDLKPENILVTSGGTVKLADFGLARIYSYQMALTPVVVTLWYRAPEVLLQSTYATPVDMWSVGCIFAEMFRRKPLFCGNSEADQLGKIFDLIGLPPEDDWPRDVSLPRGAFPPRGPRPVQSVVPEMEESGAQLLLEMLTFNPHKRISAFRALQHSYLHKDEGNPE
T2 sequence (P24385 whole entry partner): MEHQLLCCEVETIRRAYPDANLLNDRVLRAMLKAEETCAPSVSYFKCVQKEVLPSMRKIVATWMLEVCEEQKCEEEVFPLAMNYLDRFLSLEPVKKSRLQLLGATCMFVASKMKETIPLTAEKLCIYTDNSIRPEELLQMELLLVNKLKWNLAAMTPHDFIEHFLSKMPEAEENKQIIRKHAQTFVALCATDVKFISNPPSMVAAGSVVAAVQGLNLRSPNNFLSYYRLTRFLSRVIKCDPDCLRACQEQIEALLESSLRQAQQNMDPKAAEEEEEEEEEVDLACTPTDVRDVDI

Row | IC50 [1] [µM] | IC50 [2] [µM] | IC50 [3] [µM] | SMILES
1 | ≤ 0.1 | ≤ 0.1 | ≤ 0.1 | Cc1sc(-c2nc(N[C@@H]3CCN(S(=O)(=O)c4cnn(C)c4)C[C@H]3F)ncc2C(F)(F)F)cc1C(N)=O [Example 17, 5-(2-(((3R,4R)-3-fluoro-1-((1-methyl-1H-pyrazol-4-yl)sulfonyl)piperidin-4-yl)amino)-5-(trifluoromethyl)pyrimidin-4-yl)-2-methylthiophene-3-carboxamide]
2 | ≤ 0.1 | ≤ 0.1 | ≤ 0.1 | Cc1sc(-c2nc(N[C@@H]3CCN(S(=O)(=O)c4cn(C)cn4)C[C@H]3F)ncc2C(F)(F)F)cc1C(N)=O [Example 18, 5-(2-(((3R,4R)-3-fluoro-1-((1-methyl-1H-imidazol-4-yl)sulfonyl)piperidin-4-yl)amino)-5-(trifluoromethyl)pyrimidin-4-yl)-2-methylthiophene-3-carboxamide]
3 | ≤ 0.1 | ≤ 0.1 | ≤ 0.1 | C[C@@H]1CN(S(=O)(=O)c2cnn(C)c2)CC[C@@H]1Nc1ncc(C(F)(F)F)c(-c2cc(C(N)=O)cs2)n1 [Example 19, 5-(2-(((3R,4S)-3-methyl-1-((1-methyl-1H-pyrazol-4-yl)sulfonyl)piperidin-4-yl)amino)-5-(trifluoromethyl)pyrimidin-4-yl)thiophene-3-carboxamide]
4 | ≤ 0.1 | 0.1 to 0.5 | ≤ 0.1 | C[C@@H]1CN(S(=O)(=O)c2cn(C)cn2)CC[C@@H]1Nc1ncc(C(F)(F)F)c(-c2cc(C(N)=O)cs2)n1 [Example 20, 5-(2-(((3R,4S)-3-methyl-1-((1-methyl-1H-imidazol-4-yl)sulfonyl)piperidin-4-yl)amino)-5-(trifluoromethyl)pyrimidin-4-yl)thiophene-3-carboxamide]
5 | ≤ 0.1 | 0.1 to 0.5 | 0.1 to 0.5 | C[C@@H]1CN(S(=O)(=O)c2c[nH]cn2)CC[C@@H]1Nc1ncc(C(F)(F)F)c(-c2cc(C(N)=O)cs2)n1 [Example 21, 5-(2-(((3R,4S)-1-((1H-imidazol-4-yl)sulfonyl)-3-methylpiperidin-4-yl)amino)-5-(trifluoromethyl)pyrimidin-4-yl)thiophene-3-carboxamide]
6 | ≤ 0.1 | ≤ 0.1 | 0.1 to 0.5 | C[C@@H]1CN(S(=O)(=O)c2cnc3cccnn23)CC[C@@H]1Nc1ncc(C(F)(F)F)c(-c2cc(C(N)=O)cs2)n1 [Example 22, 5-(2-(((3R,4S)-1-(imidazo[1,2-b]pyridazin-3-ylsulfonyl)-3-methylpiperidin-4-yl)amino)-5-(trifluoromethyl)pyrimidin-4-yl)thiophene-3-carboxamide]
7 | ≤ 0.1 | ≤ 0.1 | ≤ 0.1 | Cc1sc(-c2nc(N[C@H]3CCN(S(=O)(=O)c4cnn(C)c4)C[C@H]3C)ncc2C(F)(F)F)cc1C(N)=O [Example 23, 2-methyl-5-(2-(((3R,4S)-3-methyl-1-((1-methyl-1H-pyrazol-4-yl)sulfonyl)piperidin-4-yl)amino)-5-(trifluoromethyl)pyrimidin-4-yl)thiophene-3-carboxamide]
8 | ≤ 0.1 | ≤ 0.1 | ≤ 0.1 | Cc1sc(-c2nc(N[C@H]3CCN(S(=O)(=O)c4cn(C)cn4)C[C@H]3C)ncc2C(F)(F)F)cc1C(N)=O [Example 24, 2-methyl-5-(2-(((3R,4S)-3-methyl-1-((1-methyl-1H-imidazol-4-yl)sulfonyl)piperidin-4-yl)amino)-5-(trifluoromethyl)pyrimidin-4-yl)thiophene-3-carboxamide]
9 | ≤ 0.1 | 0.1 to 0.5 | ≤ 0.1 | Cc1sc(-c2nc(N[C@H]3CCN(S(=O)(=O)c4c[nH]cn4)C[C@H]3C)ncc2C(F)(F)F)cc1C(N)=O [Example 25, 5-(2-(((3R,4S)-1-((1H-imidazol-4-yl)sulfonyl)-3-methylpiperidin-4-yl)amino)-5-(trifluoromethyl)pyrimidin-4-yl)-2-methylthiophene-3-carboxamide]
10 | ≤ 0.1 | ≤ 0.1 | ≤ 0.1 | Cc1cnc(-c2nc(N[C@H]3CCN(S(=O)(=O)c4cnn(C)c4)C[C@H]3F)ncc2C(F)(F)F)s1 [Example 26, N-((3R,4S)-3-fluoro-1-((1-methyl-1H-pyrazol-4-yl)sulfonyl)piperidin-4-yl)-4-(5-methylthiazol-2-yl)-5-(trifluoromethyl)pyrimidin-2-amine]
11 | ≤ 0.1 | 0.1 to 0.5 | ≤ 0.1 | Cc1cnc(-c2nc(N[C@@H]3CCN(S(=O)(=O)c4cnn(C)c4)C[C@H]3F)ncc2C(F)(F)F)s1 [Example 27, N-((3R,4R)-3-fluoro-1-((1-methyl-1H-pyrazol-4-yl)sulfonyl)piperidin-4-yl)-4-(5-methylthiazol-2-yl)-5-(trifluoromethyl)pyrimidin-2-amine]
12 | ≤ 0.1 | ≤ 0.1 | ≤ 0.1 | Cc1cnc(-c2nc(N[C@H]3CCN(S(=O)(=O)c4cn(C)cn4)C[C@H]3F)ncc2C(F)(F)F)s1 [Example 28, N-((3R,4S)-3-fluoro-1-((1-methyl-1H-imidazol-4-yl)sulfonyl)piperidin-4-yl)-4-(5-methylthiazol-2-yl)-5-(trifluoromethyl)pyrimidin-2-amine]
13 | ≤ 0.1 | 0.1 to 0.5 | ≤ 0.1 | Cc1cnc(-c2nc(N[C@@H]3CCN(S(=O)(=O)c4cn(C)cn4)C[C@H]3F)ncc2C(F)(F)F)s1 [Example 29, N-((3R,4R)-3-fluoro-1-((1-methyl-1H-imidazol-4-yl)sulfonyl)piperidin-4-yl)-4-(5-methylthiazol-2-yl)-5-(trifluoromethyl)pyrimidin-2-amine]
14 | ≤ 0.1 | ≤ 0.1 | ≤ 0.1 | Cc1sc(-c2nc(N[C@H]3CCN(S(=O)(=O)c4cnn(C)c4)C[C@H]3F)ncc2C(F)(F)F)cc1C#N [Example 30, 5-(2-(((3R,4S)-3-fluoro-1-((1-methyl-1H-pyrazol-4-yl)sulfonyl)piperidin-4-yl)amino)-5-(trifluoromethyl)pyrimidin-4-yl)-2-methylthiophene-3-carbonitrile]
15 | ≤ 0.1 | ≤ 0.1 | ≤ 0.1 | Cc1sc(-c2nc(N[C@H]3CCN(S(=O)(=O)c4cn(C)cn4)C[C@H]3F)ncc2C(F)(F)F)cc1C#N [Example 31, 5-(2-(((3R,4S)-3-fluoro-1-((1-methyl-1H-imidazol-4-yl)sulfonyl)piperidin-4-yl)amino)-5-(trifluoromethyl)pyrimidin-4-yl)-2-methylthiophene-3-carbonitrile]
16 | ≤ 0.1 | ≤ 0.1 | ≤ 0.1 | Cc1cnc(-c2nc(NC3CCN(S(=O)(=O)c4cn(C)cn4)CC3)ncc2C(F)(F)F)s1 [Example 32, N-(1-((1-methyl-1H-imidazol-4-yl)sulfonyl)piperidin-4-yl)-4-(5-methylthiazol-2-yl)-5-(trifluoromethyl)pyrimidin-2-amine]
17 | ≤ 0.1 | ≤ 0.1 | ≤ 0.1 | CC(O)c1sc(-c2nc(NC3CCN(S(=O)(=O)c4cn(C)cn4)CC3)ncc2C(F)(F)F)cc1C#N (stereo not drawn) [Example 33, 2-(1-hydroxyethyl)-5-(2-((1-((1-methyl-1H-imidazol-4-yl)sulfonyl)piperidin-4-yl)amino)-5-(trifluoromethyl)pyrimidin-4-yl)thiophene-3-carbonitrile]
18 | ≤ 0.1 | ≤ 0.1 | ≤ 0.1 | CC(O)c1sc(-c2nc(N[C@H]3CCN(S(=O)(=O)c4cnn(C)c4)C[C@H]3F)ncc2C(F)(F)F)cc1C#N (stereo partly drawn) [Example 34, 5-(2-(((3R,4S)-3-fluoro-1-((1-methyl-1H-pyrazol-4-yl)sulfonyl)piperidin-4-yl)amino)-5-(trifluoromethyl)pyrimidin-4-yl)-2-(1-hydroxyethyl)thiophene-3-carbonitrile]
19 | ≤ 0.1 | ≤ 0.1 | ≤ 0.1 | CC(O)c1sc(-c2nc(N[C@H]3CCN(S(=O)(=O)c4cn(C)cn4)C[C@H]3F)ncc2C(F)(F)F)cc1C#N (stereo partly drawn) [Example 35, 5-(2-(((3R,4S)-3-fluoro-1-((1-methyl-1H-imidazol-4-yl)sulfonyl)piperidin-4-yl)amino)-5-(trifluoromethyl)pyrimidin-4-yl)-2-(1-hydroxyethyl)thiophene-3-carbonitrile]
